This note sets out measurements from US7033578B2, “Antimycotic nail varnish composition” (Polichem S.A., priority 2000, dated 2006).

For this assay, the system named is Tricophytes Mentagrophytes. Briefly: Inhibition of growth of the onychomycosis pathogen on standard plates (Sabourand Dex., 30° C.). Format: cell-based. Particulars: ciclopirox 8%, hydroxypropylchitosan 1%; Sabourand Dex. at 30° C.; 10, 20 and 30 μl applied. Here is the method:
Inhibition of the pathogen responsible for onychomycosis in humans was tested in accordance with standard procedures on standard plates. Comparison of the antimycotic effect of ciclopirox (8%) alone and, hydroxypropychitosan (1%) alone with the combination of these two compounds (8 and 1%, respectively) with respect to the growth of Tricophytes Mentagrophytes on Sabourand Dex. at 30° C. gave the following results (amounts applied in each case 10, 20 and 30 μl): […]

In the case of `Cc1cc(C2CCCCC2)n(O)c(=O)c1` [ciclopirox], the “antimycotic effect: inhibition of growth of Tricophytes Mentagrophytes” value is reported as “good inhibition”.
